This is an account of results in patent US20250312352A1, “GLP-1R MODULATING COMPOUNDS” (Gilead Sciences, Inc., priority 2021, published 2025).

The target of this experiment is T1, GLP-1R (Homo sapiens, UniProt P43220).
T1 construct: host or cells: CHO cells
T1 sequence (P43220 24-463): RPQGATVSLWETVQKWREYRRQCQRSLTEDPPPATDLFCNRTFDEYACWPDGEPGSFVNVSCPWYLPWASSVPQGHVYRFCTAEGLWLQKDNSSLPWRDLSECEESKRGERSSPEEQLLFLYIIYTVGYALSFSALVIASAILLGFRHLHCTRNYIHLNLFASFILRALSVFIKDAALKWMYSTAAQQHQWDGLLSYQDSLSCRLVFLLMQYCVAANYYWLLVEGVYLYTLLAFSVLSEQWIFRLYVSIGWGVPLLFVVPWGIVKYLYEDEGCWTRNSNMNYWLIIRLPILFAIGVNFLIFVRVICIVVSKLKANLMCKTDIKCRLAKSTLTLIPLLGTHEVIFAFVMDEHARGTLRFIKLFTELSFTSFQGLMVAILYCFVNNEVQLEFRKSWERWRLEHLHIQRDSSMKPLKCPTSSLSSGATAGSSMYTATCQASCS
Nature of the experiment: GLP-1R activation cAMP assay (Assay 1 or Assay 2). It counts as cell-based. Particulars: cAMP increase in CHO cells stably expressing GLP-1R; compounds run on one of the two cAMP assays. In outline:
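EC50 values come from a sigmoidal fit of HTRF-detected cAMP rise versus log agonist concentration. GLP-1R-expressing CHO cells, equilibrated 1 h at 37 °C in HBSS with HEPES and BSA, received a 10-point compound dose series for 30 min before detection.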
For orientation: Cyclic AMP is a second messenger, typically raised through Gs and lowered through Gi signalling.
`Cn1cc(C#Cc2cnc(COc3cccc(-c4cc(F)c(Cc5nc6ccc(C(=O)O)cc6n5C[C@@H]5CCO5)cc4F)n3)cn2)cn1` [Example 155, (S)-2-(2,5-difluoro-4-(6-((5-((1-methyl-1H-pyrazol-4-yl)ethynyl)pyrazin-2-yl)methoxy)pyridin-2-yl)benzyl)-1-(oxetan-2-ylmethyl)-1H-benzo[d]imidazole-6-carboxylic acid]: a half-maximal response (EC50) required 830 pM.

Take `O=C(O)c1ccc2nc(Cc3cc(F)c(-c4cccc(OCc5ccn(C(F)F)n5)n4)cc3F)n(C[C@@H]3CCO3)c2c1` [Example 9, (S)-2-(4-(6-((1-(difluoromethyl)-1H-pyrazol-3-yl)methoxy)pyridin-2-yl)-2,5-difluorobenzyl)-1-(oxetan-2-ylmethyl)-1H-benzo[d]imidazole-6-carboxylic acid]: a half-maximal response (EC50) required 950 pM.

On to `N#CC1(NC(=O)c2cc(Cl)c(COc3cccc(-c4cc(F)c(Cc5nc6ccc(C(=O)O)cc6n5C[C@@H]5CCO5)cc4F)n3)cn2)COC1` [Example 187, (S)-2-(4-(6-((4-chloro-6-((3-cyanooxetan-3-yl)carbamoyl)pyridin-3-yl)methoxy)pyridin-2-yl)-2,5-difluorobenzyl)-1-(oxetan-2-ylmethyl)-1H-benzo[d]imidazole-6-carboxylic acid], for which the EC50 (usually the concentration giving half of the maximal effect) came out at 120 pM.

In turn, `Cn1nncc1C#Cc1cnc(COc2cccc(-c3cc(F)c(Cc4nc5ccc(C(=O)O)cc5n4C[C@@H]4CCO4)cc3F)n2)c(F)c1` [Example 288, (S)-2-(2,5-difluoro-4-(6-((3-fluoro-5-((1-methyl-1H-1,2,3-triazol-5-yl)ethynyl)pyridin-2-yl)methoxy)pyridin-2-yl)benzyl)-1-(oxetan-2-ylmethyl)-1H-benzo[d]imidazole-6-carboxylic acid] had an EC50 of 67 pM.

With `N#CCn1nccc1COc1cccc(-c2cc(F)c(Cc3nc4ccc(C(=O)O)cc4n3C[C@@H]3CCO3)cc2F)n1` [Example 239, (S)-2-(4-(6-((1-(cyanomethyl)-1H-pyrazol-5-yl)methoxy)pyridin-2-yl)-2,5-difluorobenzyl)-1-(oxetan-2-ylmethyl)-1H-benzo[d]imidazole-6-carboxylic acid], a half-maximal response (EC50) required 447000 pM.

Take `COc1nnc(COc2nc(-c3cc(F)c(Cc4nc5c(F)cc(C(=O)O)cc5n4[C@@H]4COCC4(C)C)cc3F)ccc2F)s1` [Example 346, (S)-2-(2,5-difluoro-4-(5-fluoro-6-((5-methoxy-1,3,4-thiadiazol-2-yl)methoxy)pyridin-2-yl)benzyl)-1-(4,4-dimethyltetrahydrofuran-3-yl)-4-fluoro-1H-benzo[d]imidazole-6-carboxylic acid]: the 50% effective concentration (EC50) was 27 pM.

Compound `CC1(C#Cc2cnc(COc3cccc(-c4cc(F)c(Cc5nc6ccc(C(=O)O)cc6n5C[C@@H]5CCO5)cc4F)n3)s2)COC1` [Example 115, (S)-2-(2,5-difluoro-4-(6-((5-((3-methyloxetan-3-yl)ethynyl)thiazol-2-yl)methoxy)pyridin-2-yl)benzyl)-1-(oxetan-2-ylmethyl)-1H-benzo[d]imidazole-6-carboxylic acid] returned an EC50 of 70 pM.

For `CCOc1nc(C)c(COc2cccc(-c3cc(F)c(Cc4nc5ccc(C(=O)O)cc5n4C[C@@H]4CCO4)cc3F)n2)s1` [Example 349, (S)-2-(4-(6-((2-ethoxy-4-methylthiazol-5-yl)methoxy)pyridin-2-yl)-2,5-difluorobenzyl)-1-(oxetan-2-ylmethyl)-1H-benzo[d]imidazole-6-carboxylic acid], the response was half-maximal at 323 pM (EC50).

`NC(=O)c1ccc(COc2nccc(-c3cc(F)c(Cc4nc5ccc(C(=O)O)cc5n4C[C@@H]4CCO4)cc3F)n2)c(OC(F)F)n1` [Example 223, (S)-2-(4-(2-((6-carbamoyl-2-(difluoromethoxy)pyridin-3-yl)methoxy)pyrimidin-4-yl)-2,5-difluorobenzyl)-1-(oxetan-2-ylmethyl)-1H-benzo[d]imidazole-6-carboxylic acid]: the 50% effective concentration (EC50) was 510 pM.

For the compound `CC(C)(C#N)NC(=O)c1cc(Cl)c(COc2cccc(-c3cc(F)c(Cc4nc5ccc(C(=O)O)cc5n4C[C@@H]4CCO4)cc3F)n2)cn1` [Example 199, (S)-2-(4-(6-((4-chloro-6-((2-cyanopropan-2-yl)carbamoyl)pyridin-3-yl)methoxy)pyridin-2-yl)-2,5-difluorobenzyl)-1-(oxetan-2-ylmethyl)-1H-benzo[d]imidazole-6-carboxylic acid], a half-maximal response (EC50) required 530 pM.

Compound `O=C(O)c1ccc2nc(Cc3cc(F)c(-c4cccc(OCc5cc(C(F)(F)F)on5)n4)cc3F)n(C[C@@H]3CCO3)c2c1` [Example 24, (S)-2-(2,5-difluoro-4-(6-((5-(trifluoromethyl)isoxazol-3-yl)methoxy)pyridin-2-yl)benzyl)-1-(oxetan-2-ylmethyl)-1H-benzo[d]imidazole-6-carboxylic acid] displayed a concentration for a half-maximal effect (EC50) of 1540 pM.

`COCCn1c(Cc2cc(F)c(-c3cccc(OCc4ccc(-c5ccc(N6CCCC6)nc5)cc4F)n3)cc2F)nc2ccc(C(=O)O)cc21` [Example 228, 2-(2,5-difluoro-4-(6-((2-fluoro-4-(6-(pyrrolidin-1-yl)pyridin-3-yl)benzyl)oxy)pyridin-2-yl)benzyl)-1-(2-methoxyethyl)-1H-benzo[d]imidazole-6-carboxylic acid] yielded an EC50 of 26000 pM.

Regarding `N#Cc1ccc(COc2cccc(-c3cc(F)c(Cc4nc5ccc(C(=O)O)cc5n4C[C@@H]4CCO4)cc3F)n2)s1` [Example 126, (S)-2-(4-(6-((5-cyanothiophen-2-yl)methoxy)pyridin-2-yl)-2,5-difluorobenzyl)-1-(oxetan-2-ylmethyl)-1H-benzo[d]imidazole-6-carboxylic acid], the response was half-maximal at 310 pM (EC50).

For `O=C(O)c1ccc2nc(Cc3cc(F)c(-c4cccc(OCc5cnc(Br)s5)n4)cc3F)n(C[C@@H]3CCO3)c2c1` [Example 21, (S)-2-(4-(6-((2-bromothiazol-5-yl)methoxy)pyridin-2-yl)-2,5-difluorobenzyl)-1-(oxetan-2-ylmethyl)-1H-benzo[d]imidazole-6-carboxylic acid], the EC50 is 410 pM.

Compound `O=C(O)c1ccc2nc(Cc3cc(F)c(-c4cccc(OCc5ccc(Cl)s5)n4)cc3F)n(C[C@@H]3CCO3)c2c1` [Example 317, (S)-2-(4-(6-((5-chlorothiophen-2-yl)methoxy)pyridin-2-yl)-2,5-difluorobenzyl)-1-(oxetan-2-ylmethyl)-1H-benzo[d]imidazole-6-carboxylic acid] returned a concentration giving a half-maximal response (EC50) of 125 pM.

`O=C(O)c1ccc2nc(Cc3cc(F)c(-c4cccc(OCc5ncc(C#CC6(C(F)F)CC6)s5)n4)cc3F)n(C[C@@H]3CCO3)c2c1` [Example 326, (S)-2-(4-(6-((5-((1-(difluoromethyl)cyclopropyl)ethynyl)thiazol-2-yl)methoxy)pyridin-2-yl)-2,5-difluorobenzyl)-1-(oxetan-2-ylmethyl)-1H-benzo[d]imidazole-6-carboxylic acid] gave an EC50 of 451 pM.

The compound `O=C(O)c1ccc2nc(Cc3cc(F)c(-c4cccc(OCc5cnc(C(=O)NC6CCCC6)cc5F)n4)cc3F)n(C[C@@H]3CCO3)c2c1` [Example 244, (S)-2-(4-(6-((6-(cyclopentylcarbamoyl)-4-fluoropyridin-3-yl)methoxy)pyridin-2-yl)-2,5-difluorobenzyl)-1-(oxetan-2-ylmethyl)-1H-benzo[d]imidazole-6-carboxylic acid] registered an EC50 of 2280 pM.

As to `CC1(C)COC[C@H]1n1c(Cc2cc(F)c(-c3ccnc(OCc4sc(C#N)cc4F)n3)cc2F)nc2ccc(C(=O)O)cc21` [Example 267, 2-[[4-[2-[(5-cyano-3-fluoro-2-thienyl)methoxy]pyrimidin-4-yl]-2,5-difluoro-phenyl]methyl]-3-[(3S)-4,4-dimethyltetrahydrofuran-3-yl]benzimidazole-5-carboxylic acid], a half-maximal effect (EC50) was put at 401 pM.

Consider `Cn1cc(-n2ccc(COc3cccc(-c4cc(F)c(Cc5nc6ccc(C(=O)O)cc6n5C[C@@H]5CCO5)cc4F)n3)n2)cn1` [Example 82, (S)-2-(2,5-difluoro-4-(6-((1′-methyl-1′H-[1,4′-bipyrazol]-3-yl)methoxy)pyridin-2-yl)benzyl)-1-(oxetan-2-ylmethyl)-1H-benzo[d]imidazole-6-carboxylic acid], for which the concentration for a half-maximal effect (EC50) turned out to be 5530 pM.

As to `CNC(=O)c1csc(COc2cccc(-c3cc(F)c(Cc4nc5ccc(C(=O)O)cc5n4C[C@@H]4CCO4)cc3F)n2)n1` [Example 373, (S)-2-(2,5-difluoro-4-(6-((4-(methylcarbamoyl)thiazol-2-yl)methoxy)pyridin-2-yl)benzyl)-1-(oxetan-2-ylmethyl)-1H-benzo[d]imidazole-6-carboxylic acid], the 50% effective concentration (EC50) was determined as 79 pM.

As for `O=C(O)c1cc(F)c2nc(Cc3c(F)cc(-c4ccnc(OCc5nc(C(F)(F)F)cs5)n4)c(F)c3F)n(C[C@@H]3CCO3)c2c1` [Example 377, (S)-4-fluoro-1-(oxetan-2-ylmethyl)-2-(2,3,6-trifluoro-4-(2-((4-(trifluoromethyl)thiazol-2-yl)methoxy)pyrimidin-4-yl)benzyl)-1H-benzo[d]imidazole-6-carboxylic acid], the concentration for a half-maximal effect (EC50) was 481 pM.

`O=C(O)c1ccc2nc(Cc3cc(F)c(-c4cccc(OCc5ncc(-c6cncnc6)s5)n4)cc3F)n(C[C@@H]3CCO3)c2c1` [Example 105, (S)-2-(2,5-difluoro-4-(6-((5-(pyrimidin-5-yl)thiazol-2-yl)methoxy)pyridin-2-yl)benzyl)-1-(oxetan-2-ylmethyl)-1H-benzo[d]imidazole-6-carboxylic acid] displayed a half-maximal effective concentration (EC50) of 140 pM.

Compound `O=C(O)c1ccc2nc(Cc3cc(F)c(-c4cccc(OCc5ccc(C#Cc6cnc(Cl)nc6)cc5)n4)cc3F)n(C[C@@H]3CCO3)c2c1` [Example 403, (S)-2-(4-(6-((4-((2-chloropyrimidin-5-yl)ethynyl)benzyl)oxy)pyridin-2-yl)-2,5-difluorobenzyl)-1-(oxetan-2-ylmethyl)-1H-benzo[d]imidazole-6-carboxylic acid] displayed an EC50 of 96 pM.
